The test system of experiment [1] is Nucleic Acid. Nature of the experiment: Tested in vitro for inhibition of rat liver microsome-mediated AFB1-DNA at concentration of 50 uM. It counts as microsomes. In general terms: Microsomes from liver hold many membrane-bound enzymes, among them those of drug oxidation.
The test system of experiment [2] is Nucleic Acid. The experiment in a line: Tested in vitro for inhibition of rat liver microsome-mediated AFB1-DNA at concentration of 10 uM. Format: microsomes.
Experiment [3] concerns Nucleic Acid. The experiment in a line: In vitro binding affinity to rat liver microsome-mediated AFB1-DNA using [3H]- AFB1 radioligand assay at concentration of 10 uM. It counts as microsomes.
In experiment [4] the test system is Nucleic Acid. The experiment in a line: In vitro binding affinity to rat liver microsome-mediated AFB1-DNA using [3H]- AFB1 radioligand assay at concentration of 100 uM. It counts as microsomes.
Experiment [5] relates to Nucleic Acid. Nature of the experiment: Tested in vitro for inhibition of rat liver microsome-mediated AFB1-DNA at concentration of 100 uM. Format: microsomes.
Experiment [6] deals with Nucleic Acid. The experiment in a line: In vitro binding affinity to rat liver microsome-mediated AFB1-DNA using [3H]- AFB1 radioligand assay at concentration of 50 uM.

Consider 6 compounds from ChEMBL document CHEMBL1128772, “Methylenedioxyphenyl substituted compounds from Piper species as inhibitors of liver microsome-mediated aflatoxin B1-DNA binding in vitro” (Bioorg Med Chem Lett, 1995).

Structures are written as SMILES.

A word on the inhibition: it is how much of the control response was suppressed.

Turning to `C=CCC1=C[C@]2(OC)[C@H](C)[C@@H](c3ccc4c(c3)OCO4)O[C@]2(OC)CC1=O`, the inhibition in experiment [1] is 21%; in experiment [2] it was 9%; in experiment [5], 23%. Also, the Binding (pM 30min-1 (mg of DNA)-1) worked out at 127 in experiment [3], 108 in experiment [4] and 110 in experiment [6].
For `O=C(/C=C/C=C/c1ccc2c(c1)OCO2)N1CCCCC1`, the inhibition amounted to 47% in experiment [1], 27% in experiment [2] and 57% in experiment [5]. The Binding (pM 30min-1 (mg of DNA)-1) in experiment [3] turned out to be 96.6; in experiment [4] it was 56.6; in experiment [6], 70.
On to `COC(=O)/C=C/C=C/c1ccc2c(c1)OCO2`, for which the inhibition in experiment [1] stood at 42%; in experiment [2], 16%; in experiment [5] it was 61%. Besides, the Binding (pM 30min-1 (mg of DNA)-1) in experiment [3] turned out to be 110; in experiment [4], 50.7; in experiment [6], 76.
On to `C=CCC1=C[C@@](OC)([C@H](C)Cc2ccc3c(c2)OCO3)C(OC)=CC1=O`, for which the values for the inhibition in experiment [1], in experiment [2] and in experiment [5] were 12%, 11% and 13%, respectively. Further, the Binding (pM 30min-1 (mg of DNA)-1) in experiment [3] came out at 124; in experiment [4], 122; in experiment [6], 123.
Turning to `c1cc2c(cc1[C@H]1OC[C@H]3[C@@H]1CO[C@H]3c1ccc3c(c1)OCO3)OCO2`, the inhibition worked out at 42% in experiment [1], 21% in experiment [2] and 48% in experiment [5]. The Binding (pM 30min-1 (mg of DNA)-1) turned out to be 105 in experiment [3], 68.2 in experiment [4] and 76.5 in experiment [6].
In the case of `C=CCC1=C[C@]2(OC)[C@H](C)[C@@H](c3ccc4c(c3)OCO4)O[C@]2(OC)C[C@@H]1O`, the inhibition stood at 64% in experiment [1], 31% in experiment [2] and 81% in experiment [5]. The values for the Binding (pM 30min-1 (mg of DNA)-1) in experiment [3], in experiment [4] and in experiment [6] were 91, 24.8 and 48, respectively.
